According to PubChem BioAssay (NCI):
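Interpolation was linear, between the two tested concentrations surrounding the appropriate level; five concentrations were tested over 48 hours in 96-well plates. TGI marks complete inhibition of growth.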

Columns and labels:
Test in all cases: DTP human tumour cell line panel, 48 h
[1] = system: MDA-MB-231 breast
[2] = system: SK-MEL-5 melanoma
[3] = system: NCI-H522 lung
[4] = system: SF-539 CNS
[5] = system: M14 melanoma
[6] = system: HOP-92 NSCLC
[7] = system: BT-549 breast
[8] = system: OVCAR-8 ovarian
[9] = system: A549 NSCLC
[10] = system: NCI-H460 lung
[11] = system: UACC-257 melanoma
[12] = system: SF-295 CNS
[13] = system: OVCAR-4 ovarian
[14] = system: RXF 393 renal
[15] = system: SNB-19 CNS
[16] = system: COLO 205 colon
[17] = system: MCF7 breast
[18] = system: HL-60(TB) leukemia
[19] = system: NCI/ADR-RES ovarian
[20] = system: HCT-15 colon
[21] = system: TK-10 renal
[22] = system: CCRF-CEM leukemia
[23] = system: MDA-N
[24] = system: UO-31 renal
[25] = system: HS 578T breast
[26] = system: PC-3 prostate
[27] = system: SW-620 colon
[28] = system: MALME-3M melanoma
[29] = system: LOX IMVI melanoma
[30] = system: CAKI-1 renal
[31] = system: UACC-62 melanoma
[32] = system: NCI-H226 lung
[33] = system: RPMI-8226 leukemia
[34] = system: SNB-75 CNS
[35] = system: HT29 colon
[36] = system: MDA-MB-435
[37] = system: U251 CNS
[38] = system: IGROV1 ovarian
[39] = system: SK-MEL-2 melanoma
[40] = system: HCT-116 colon
[41] = system: KM12 colon
[42] = system: A498 renal
[43] = system: NCI-H23 lung
[44] = system: ACHN renal
[45] = system: SF-268 CNS
[46] = system: SK-OV-3 ovarian
[47] = system: OVCAR-3 ovarian
[48] = system: HOP-62 NSCLC
[49] = system: 786-0 renal
[50] = system: OVCAR-5 ovarian
[51] = system: K-562 leukemia
[52] = system: T-47D breast
[53] = system: EKVX NSCLC
[54] = system: MOLT-4 leukemia
[55] = system: SK-MEL-28 melanoma
[56] = system: SN12C renal
[57] = system: HCC-2998 colon

Measured: TGI

O=C1CCCNn2c(nc3ncccc3c2=O)N1
> 100 µM: [1] | [2] | [3] | [4] | [5] | [6] | [7] | [8] | [9] | [10] | [11] | [12] | [13] | [14] | [15] | [16] | [17] | [18] | [19] | [20] | [21] | [22] | [23] | [24] | [25] | [26] | [27] | [28] | [29] | [30] | [31] | [32] | [33] | [34] | [35] | [36] | [37] | [38] | [39] | [40] | [41] | [42] | [43] | [44] | [45] | [46] | [47] | [48] | [49] | [50] | [51] | [52] | [53] | [54]

Cc1cc2[nH]c3c(C#N)c(-c4ccccc4)c(N=Nc4ccc(F)cc4)c(=O)n3c2cc1C
> 100 µM: [1] | [2] | [3] | [4] | [5] | [7] | [9] | [10] | [11] | [12] | [13] | [14] | [15] | [16] | [17] | [19] | [20] | [21] | [22] | [23] | [24] | [26] | [55] | [27] | [29] | [30] | [32] | [33] | [34] | [56] | [36] | [37] | [39] | [40] | [42] | [43] | [44] | [45] | [46] | [48] | [49] | [50] | [52] | [53] | [57]
39.8 µM: [47]
